US20170172929A1, “PHARMACEUTICAL COMPOSITION CONTAINING PREGABALIN WITH IMPROVED STABILITY AND METHOD FOR PREPARING SAME” (Yungjin Pharm. Co., Ltd., priority 2014, published 2017)
Where two headings read alike, the source gives them in different places.

Tests used:
[1] = cited from earlier work
[2] = severe conditions (60°C), airtight glass vial, excipient mixed 1:1
Description: 1 g of pregabalin and each 1 g of the excipients given in Table 14 were mixed at room temperature, and the mixture in the form of powder was air-tightened in a glass vial, and this vial was stored under severe conditions (60° C.) for 2 weeks, and then a percentage (%) of lactam related compounds (PRG-Lactam) relative to the main peak was calculated by HPLC. The analysis wavelength was 210 nm, a mixture (0.04 M ammonium phosphate ((NH4)2HPO4) buffer solution:acetonitrile:methanol=84:5:11) containing 5 mM sodium 1-octanesulfonate used as a mobile phase A, and acetonitrile was used as a mobile phase B. The mobile phase A was maintained at 100% for initial 6 minutes, and the m phase A was maintained from 100% to 70% and the mobile phase B was maintained from 0% to 30% for 6˜45 minutes, and then the mobile phase A was maintained at 70% and the mobile phase B was maintained at 0% for 45˜50 minutes. Post time was 10 minutes. A flow rate was adjusted (0.9 min/mL) so that a retention time of pregabalin was about 8 minutes. A column was a stainless steel column having an internal diameter of about 4.6 mm and a length of about 250 mm, packed with 5 μm-octadecylsilyl silica gel for liquid chromatography.

## CC(C)C[C@H](CN)CC(=O)O [Pregabalin, (S)-3-(aminomethyl)-5-methylhexanoic acid]
[1]; after administration
  Time to steady-state blood levels: 24˜48 hours
[1]; in vivo
  Average absorption time: 6 h
[1]; normal person
  Half-life: about 6 hours
[1]; oral immediate release
  Time to reach peak blood levels: ≤ 1.5 h
[2]; 0 weeks
  % of Peak area of PRG-Lactam relative to peak area of pregabalin: 0.074%
[2]; 1 week
  % of Peak area of PRG-Lactam relative to peak area of pregabalin: 0.196%
[2]; 2 weeks
  % of Peak area of PRG-Lactam relative to peak area of pregabalin: 0.329%
